The text below walks through data of ChEMBL document CHEMBL1201862, “PubChem BioAssay data set” (2004).

The source made the active and inactive calls.

A short description of test [1]: Luminescence Cell-Based Dose Retest to Confirm Inhibitors of Cancer Stem Cells. [Related pubchem assays (depositor defined):AID2717, AID2721]. Particulars: Homo sapiens. Type of test: functional.
The nature of test [2]: Luminescence Cell-Based Dose Response HTS to Identify Inhibitors of 5'UTR Stem-Loop Driven Prion Protein mRNA Translation in H4 Neuroglioblastoma Cells. [Related pubchem assays: 1827 (Project Summary), 1813 (Primary HTS)]. Type of test: functional.
The nature of test [3]: alpha-synuclein stem-loop luciferase translation blockers – H4 neuroglioma cells, luminescence, confirmation (AID 1988). Format: functional, cell-based.
Test [4] can be described thus: luciferase reporter signal suppression in cells – H4 neuroglioma cells, luminescence, dose response (AID 1990). Format: functional, cell-based. On the technique in general: A reporter such as luciferase makes a cellular process visible.
Test [5] in a line: viability of uninfected HEp-2 cells – cell-based, HTS, cytotoxicity control for RSV inhibitor project, dose response (AID 2410). Format: functional. To be noted: human respiratory syncytial virus.
The target of a further test is T1, Protein skinhead-1 (Caenorhabditis elegans, UniProt P34707).
T1 sequence (P34707 whole entry): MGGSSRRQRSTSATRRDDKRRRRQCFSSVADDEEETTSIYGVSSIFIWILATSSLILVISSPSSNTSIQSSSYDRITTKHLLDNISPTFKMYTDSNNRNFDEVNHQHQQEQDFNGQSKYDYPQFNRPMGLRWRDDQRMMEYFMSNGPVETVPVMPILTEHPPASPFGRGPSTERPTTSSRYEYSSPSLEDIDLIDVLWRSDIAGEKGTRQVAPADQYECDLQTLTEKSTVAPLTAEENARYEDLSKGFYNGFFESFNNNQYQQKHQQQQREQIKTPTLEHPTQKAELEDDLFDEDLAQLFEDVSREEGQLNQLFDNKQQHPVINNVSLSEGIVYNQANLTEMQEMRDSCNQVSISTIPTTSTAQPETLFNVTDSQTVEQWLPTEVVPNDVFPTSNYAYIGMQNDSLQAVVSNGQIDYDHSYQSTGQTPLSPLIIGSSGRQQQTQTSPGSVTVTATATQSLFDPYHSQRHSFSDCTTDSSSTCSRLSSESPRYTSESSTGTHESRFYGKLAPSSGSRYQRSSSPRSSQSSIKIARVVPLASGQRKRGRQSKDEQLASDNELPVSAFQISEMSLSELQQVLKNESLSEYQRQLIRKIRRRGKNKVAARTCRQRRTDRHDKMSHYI
Type of test: functional.

For test [6], the target named is T2, Replicative DNA helicase DnaB (Mycobacterium tuberculosis, UniProt P9WMR3).
T2 sequence (P9WMR3 whole entry): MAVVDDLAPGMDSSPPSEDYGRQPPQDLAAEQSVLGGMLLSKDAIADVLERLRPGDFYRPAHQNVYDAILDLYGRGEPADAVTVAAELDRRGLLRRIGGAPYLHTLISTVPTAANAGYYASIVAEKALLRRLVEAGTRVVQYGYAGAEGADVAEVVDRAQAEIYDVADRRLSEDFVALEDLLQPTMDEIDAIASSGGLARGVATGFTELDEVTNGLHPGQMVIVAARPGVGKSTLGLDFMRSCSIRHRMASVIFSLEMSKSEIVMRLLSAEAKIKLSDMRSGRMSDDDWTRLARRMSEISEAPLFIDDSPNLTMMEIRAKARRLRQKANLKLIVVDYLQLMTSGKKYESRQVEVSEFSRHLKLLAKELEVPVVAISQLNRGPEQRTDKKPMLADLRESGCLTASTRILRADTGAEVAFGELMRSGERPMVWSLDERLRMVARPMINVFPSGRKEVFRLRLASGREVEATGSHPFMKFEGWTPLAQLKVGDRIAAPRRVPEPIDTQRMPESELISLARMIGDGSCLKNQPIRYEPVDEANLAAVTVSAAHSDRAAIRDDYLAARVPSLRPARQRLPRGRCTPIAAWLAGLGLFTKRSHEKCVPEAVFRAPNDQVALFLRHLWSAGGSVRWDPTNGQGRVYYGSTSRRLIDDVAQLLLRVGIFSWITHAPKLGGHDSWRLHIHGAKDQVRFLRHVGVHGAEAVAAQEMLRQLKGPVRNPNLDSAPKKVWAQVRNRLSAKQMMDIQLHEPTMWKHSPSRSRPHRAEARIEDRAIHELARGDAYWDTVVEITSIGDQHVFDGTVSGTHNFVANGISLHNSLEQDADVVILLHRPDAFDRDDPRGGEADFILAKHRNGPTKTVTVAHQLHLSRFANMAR
Description: DnaB intein splicing inhibitors, dose response, biochemical, cell-free fluorescence (AID 449749). Format: functional.

The nature of test [7]: NIH3T3 cell viability loss – ATP luminescence, mouse fibroblasts, counter-screen, dose response (AID 2010).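 Further: cells exposed to compound for about 90 hours before reading.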 Type of test: functional, cell-based. Background: A counterscreen serves to expose hits that act by an unwanted route or on another target.
A short description of test [8]: Trypanosoma cruzi growth suppression in host cells – NIH3T3 host cells, beta-gal luminescence, confirmation (AID 2044).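 Further: intracellular parasites grown in NIH/3T3 mouse fibroblasts as host cells; luminescent beta-galactosidase reporter signal from transgenic T. cruzi replicating inside host cells; inhibitors lower the luminescence signal.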 Format: functional, cell-based.
The next test has as its system INS1. Description: INS-1E survival protection against cytokine death – cell-based, luminescence, retest, dose response (AID 449756).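 Further: cell death triggered by IL-1 beta plus TNF-alpha plus IFN-gamma mixture; protective hits raise ATP signal compared with cytokine alone wells.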 Format: functional. To be noted: Rattus norvegicus.
A further test addresses T3, Protein RecA (Mycobacterium tuberculosis, UniProt P9WHJ3).
T3 sequence (P9WHJ3 whole entry): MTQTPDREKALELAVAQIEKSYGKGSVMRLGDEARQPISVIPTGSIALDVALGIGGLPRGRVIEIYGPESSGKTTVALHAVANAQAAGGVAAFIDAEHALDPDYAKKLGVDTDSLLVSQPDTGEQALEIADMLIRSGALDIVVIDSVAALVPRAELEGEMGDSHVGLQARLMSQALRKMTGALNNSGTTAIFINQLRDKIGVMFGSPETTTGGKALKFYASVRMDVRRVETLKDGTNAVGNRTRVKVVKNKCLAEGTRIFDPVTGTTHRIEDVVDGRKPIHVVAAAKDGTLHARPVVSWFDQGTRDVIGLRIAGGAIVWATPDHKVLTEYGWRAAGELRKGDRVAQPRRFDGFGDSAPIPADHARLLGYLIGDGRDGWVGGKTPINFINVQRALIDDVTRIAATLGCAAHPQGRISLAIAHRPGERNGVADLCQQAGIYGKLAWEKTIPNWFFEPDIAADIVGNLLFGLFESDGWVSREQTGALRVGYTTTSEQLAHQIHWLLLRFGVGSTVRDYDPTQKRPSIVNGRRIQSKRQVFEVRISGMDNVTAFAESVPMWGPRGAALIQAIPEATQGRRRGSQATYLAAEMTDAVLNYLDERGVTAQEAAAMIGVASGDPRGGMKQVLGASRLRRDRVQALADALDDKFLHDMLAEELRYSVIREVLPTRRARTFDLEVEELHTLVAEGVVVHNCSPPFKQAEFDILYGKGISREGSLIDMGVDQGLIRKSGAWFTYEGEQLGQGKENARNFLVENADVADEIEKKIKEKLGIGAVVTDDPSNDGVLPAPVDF
Description: Fluorescence Cell-Free Homogeneous Dose Retest to Identify Inhibitors of RecA-Intein Splicing Activity. [Related pubchem assays (depositor defined):AID2097, AID2223, AID489010, AID492950]. Type of test: functional.

A further test relates to Streptococcus. Description: GAS UMAA2166 growth inhibition – luminescence, BacTiterGlo, counter-screen for streptokinase expression inhibitor project, dose response (AID 1915).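 Further: potency for reduction of bacterial viability or growth.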 Format: functional, organism-based.
Test [9] relates to Streptococcus sp. 'group A'. Description: Streptococcus pyogenes SK(-)GAS viability under kanamycin – luminescence, BacTiterGlo, confirmation, counter-screen for streptokinase expression inhibitor project, dose response (AID 1900). Type of test: functional, organism-based.
A further test concerns the target T4, Streptokinase A (Streptococcus pyogenes serotype M1, UniProt P10520).
T4 sequence (P10520 whole entry): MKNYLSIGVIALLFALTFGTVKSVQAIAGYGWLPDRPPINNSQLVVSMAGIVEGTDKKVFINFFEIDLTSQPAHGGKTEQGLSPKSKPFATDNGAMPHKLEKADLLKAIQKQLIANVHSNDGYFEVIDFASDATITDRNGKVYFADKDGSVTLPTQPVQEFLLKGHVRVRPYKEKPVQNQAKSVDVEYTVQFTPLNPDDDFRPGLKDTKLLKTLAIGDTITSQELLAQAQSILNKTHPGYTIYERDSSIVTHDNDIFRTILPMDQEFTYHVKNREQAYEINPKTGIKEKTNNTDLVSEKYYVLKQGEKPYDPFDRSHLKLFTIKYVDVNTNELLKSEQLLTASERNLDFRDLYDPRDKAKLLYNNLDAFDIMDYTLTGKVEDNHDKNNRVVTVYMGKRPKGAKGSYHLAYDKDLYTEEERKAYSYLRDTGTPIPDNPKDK
Description: viability-normalized secreted streptokinase activity reduction – plasminogen activation absorbance, OD405, dose response (AID 1914).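 Further: secreted streptokinase activity via plasminogen activation per viability signal from cell pellet.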 Type of test: functional, Streptococcus pyogenes M1 GAS.

On to `O=Nc1c(O)n(Cc2ccc(Cl)cc2Cl)c2ccccc12`, for which the AC50 (in general, the concentration at which the activity in the assay is half-maximal) in test [1] is 6.86 µM (active).

Turning to `COc1cccc(/C=C/c2nc(C#N)c(NCC(C)C)o2)c1`, in [1], the AC50 was 2.19 µM (active).

Take `CCCn1c2ccccc2c2nnc(SCC(=O)Nc3c(C)n(C)n(-c4ccccc4)c3=O)nc21`: the EC50 in test [2], in test [3] and in test [4] was > 120 µM (not active) each time.

Consider `O=C(Nc1ccc(Cl)c(Cl)c1)c1ccc2c(c1)OCO2`, for which, in test [5], the CC50 (as a rule, the concentration that lowers cell viability or growth by half) is > 50 µM (active).

`O=C1Nc2ccccc2/C1=C\c1cccn1-c1ccc(OC(F)(F)F)cc1`: the EC50 (commonly the concentration at which the effect is half-maximal) is > 120 µM (not active) in [2], 15.4 µM (active) in test [3] and 15.7 µM (active) in [4].

As to `C=CCn1c(-c2ccccc2)ccc(C#N)c1=O`, the IC50 (usually the midpoint of a concentration-inhibition curve) on Protein skinhead-1 was 15.8 µM (active).

As to `CCC(C)(C)C(=O)Nc1ncc(S(=O)(=O)c2ccc([N+](=O)[O-])cc2)s1`, at Protein skinhead-1, the IC50 is > 100 µM (inactive).

Take `CC(C)(C)c1ccc(/C=C(\c2nc3ccccc3[nH]2)S(=O)(=O)c2ccccc2)cc1`: the figures for the AC50 (in [6]; in test [1]; in the test on INS1) were 2.19 µM (active), 1.36 µM (active) and 6.71 µM (active), respectively. For the same molecule, the figures for the EC50 (in test [7]; in [8]; at Protein RecA) were > 60 µM (not active), 0.995 µM (active) and 2.77 µM (active), respectively.

On to `CC(C)(C)c1ccc(NC(=O)c2c(F)cccc2Cl)cc1`, for which the CC50 in test [5] was 43.5 µM (active).

Regarding `CCc1ccccc1N=C(S)N=C(N)Nc1nc(C)c2cc(C)ccc2n1`, the EC50 in [2] was > 120 µM (not active); in test [3], 29.4 µM (active); in [4] it was > 120 µM (not active).

For the molecule `O=C(NNC(=O)c1ccccc1OCc1ccccc1)c1ccccc1O`, the AC50 in the test with INS1 is 2.76 µM (active). Besides, the EC50 is 11.6 µM (active) in [2], 5.27 µM (active) in test [3] and 3.92 µM (active) in test [4].

As for `c1ccc(-c2ccc(-n3ccnc3)cc2)cc1`, the EC50 in test [7] and in test [8] was > 30 µM (not active) in each case. For the same molecule, the IC50 on Protein skinhead-1 is 6.11 µM (active).

Consider `COc1ccc(CC(=O)NCc2ccc3c(c2)cc(C)n3C)cc1`, for which the IC50 at Protein skinhead-1 was > 100 µM (inactive).

Turning to `CCc1ccc2c(c1)c1nnc(NN)nc1n2C`, the EC50 in test [2], in [3] and in test [4] was > 120 µM (not active) in each case.

As for `CCOC(=O)c1c(C)n(C)c2ccc(OCC(O)Cn3nc(C)c(Br)c3C)cc12` (stereo not drawn), the EC50 with Streptococcus is 38.1 µM (active); in test [9], 15.6 µM (active); on Streptokinase A, > 150 µM (not active). Moreover, the CC50 in test [5] is 15.6 µM (active).

For the molecule `Fc1ccc(-c2nnc(Cc3ccc(Cl)cc3)o2)cc1`, the IC50 at Protein skinhead-1 was 20.2 µM (active).

Consider `Clc1cc(Cl)c2nc(N3CCCC3)sc2c1`, for which, on Protein skinhead-1, the IC50 was 27.1 µM (active).

Take `O=C(Nc1ccc(C(O)(C(F)(F)F)C(F)(F)F)cc1)c1ccc(Cl)c([N+](=O)[O-])c1`: in test [1], the AC50 was 5.95 µM (active).

Regarding `Clc1ccc(-c2nnc(SCc3ccon3)o2)c(Cl)c1`, the IC50 on Protein skinhead-1 is 60.2 µM (inactive).

For `CCN(CC)C(=O)c1sc(NC(=O)Cc2ccc(OC)cc2)c(C#N)c1C`, the IC50 at Protein skinhead-1 was > 100 µM (inactive).

For the molecule `CC(=O)n1cc(-c2ccncc2)c2ccccc21`, the CC50 in test [5] is 31.5 µM (active).

`NC(=O)CC(NC(=O)Cc1cccc2ccccc12)c1ccc(NC2CC3CCC2C3)c([N+](=O)[O-])c1` (stereo not drawn): the CC50 in test [5] is > 50 µM (active).

Consider `O=C(C[C@H]1C[C@H](C(=O)N2CCOCC2)[C@@]2(CCC3CCCC3)c3[nH]c4cc(-c5ccco5)ccc4c3CCN2C1=O)NCc1ccco1`, for which the IC50 at Protein skinhead-1 was > 100 µM (inactive).

For the molecule `O=C(NC1CCCC1)C1C(c2ccc(C(F)(F)F)cc2)=Nc2ccccc2N1C(=O)c1ccco1` (stereo not drawn), at Protein skinhead-1, the IC50 is > 100 µM (inactive).

`Clc1ccc(-c2nc(CSc3ccccn3)cs2)cc1`: the IC50 on Protein skinhead-1 was 59.1 µM (inactive).

As to `Oc1nc(N/N=C/c2ccccc2Br)nnc1-c1ccccc1`, the CC50 in test [5] was 30.9 µM (active).

As for `COc1ccc(O)c(/C=N/Nc2nc(C)cc(-c3ccccc3)n2)c1`, the CC50 in test [5] is 18.1 µM (active).

In the case of `COc1ccccc1-c1cc(C(=O)N/N=C/c2ccc(C)s2)c2ccccc2n1`, in [5], the CC50 was 32.2 µM (active).

`Cc1nn(-c2ccccc2)c(C)c1/C=N/n1c(S)nnc1-c1ccc(C(C)(C)C)cc1`: the EC50 in the test with Streptococcus is 5.35 µM (active); in test [9], 3.13 µM (active); on Streptokinase A, > 150 µM (not active). Besides, in [1], the AC50 is 5.78 µM (active).
